Test results as given in PubChem BioAssay AID248 (DTP/NCI, 2004).
Where “and” joins values, the source holds several entries; their conditions need not be identical. Equal entries are not always repeated. Toxic doses and inconclusive results are not listed.

System: L1210 leukemia ip in BDF1 mice, survival T/C
Assay: NCI In Vivo Anticancer Drug Screen. Data for tumor model L1210 Leukemia (intraperitoneal) in B6D2F1 (BDF1) mice
Settings: endpoint: mean survival time, higher = longer survival
Summary of the method: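 In this screen, tumor-bearing mice given compound are compared to those given vehicle, and their survival values are reported as a treated-to-control quotient.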

[1] = dose: 100.0 mg/kg/injection, schedule: Q01DX001 (ip), vehicle: carboxymethylcellulose (CMC)
[2] = dose: 200.0 mg/kg/injection, schedule: Q01DX001 (ip), vehicle: carboxymethylcellulose (CMC)
[3] = dose: 400.0 mg/kg/injection, schedule: Q01DX001 (ip), vehicle: carboxymethylcellulose (CMC)
[4] = dose: 100.0 mg/kg/injection, schedule: Q01DX009 (ip), vehicle: Klucel (hydroxypropylcellulose) (HPC)
[5] = dose: 50.0 mg/kg/injection, schedule: Q01DX009 (ip), vehicle: saline
[6] = dose: 100.0 mg/kg/injection, schedule: Q01DX009 (ip), vehicle: saline
[7] = dose: 200.0 mg/kg/injection, schedule: Q01DX009 (ip), vehicle: saline
[8] = dose: 100.0 mg/kg/injection, schedule: Q04DX003 (ip), vehicle: Klucel (hydroxypropylcellulose) (HPC)
[9] = dose: 200.0 mg/kg/injection, schedule: Q04DX003 (ip), vehicle: Klucel (hydroxypropylcellulose) (HPC)
[10] = dose: 400.0 mg/kg/injection, schedule: Q04DX003 (ip), vehicle: Klucel (hydroxypropylcellulose) (HPC)
[11] = dose: 200.0 mg/kg/injection, schedule: Q01DX009 (ip), vehicle: Klucel (hydroxypropylcellulose) (HPC)
[12] = dose: 100.0 mg/kg/injection, schedule: Q04DX002 (ip), vehicle: saline
[13] = dose: 200.0 mg/kg/injection, schedule: Q04DX002 (ip), vehicle: saline

Which T/C [1] does the source give for `COc1ccc(C2C(c3ccccc3)C=CC(c3ccccc3)C2[N+](=O)[O-])cc1OC` (stereo not given) here?
Its T/C is 94 % of control.

What about the T/C [2] of the same molecule?
The T/C was 110 % of control.

And the T/C [3]?
The T/C was 94 % of control.

What does the source list for `CCCCCCCCCCCCCCCC[N+]1(C)CCOCC1`?
T/C (dose: 50.0 mg/kg/injection, schedule: Q01DX009 (ip), vehicle: Klucel (hydroxypropylcellulose) (HPC)): 114 % of control; T/C [4]: 93 % of control

What does the source list for `Brc1cccc(Br)n1`?
T/C (dose: 50.0 mg/kg/injection, schedule: Q01DX001 (ip), vehicle: other): 101 % of control; T/C (dose: 100.0 mg/kg/injection, schedule: Q01DX001 (ip), vehicle: other): 121 % of control; T/C (dose: 100.0 mg/kg/injection, schedule: Q04DX002 (ip), vehicle: saline with Tween-80): 106 % of control; T/C (dose: 200.0 mg/kg/injection, schedule: Q01DX001 (ip), vehicle: other): 97 % of control; T/C (dose: 200.0 mg/kg/injection, schedule: Q04DX002 (ip), vehicle: saline with Tween-80): 93 % of control; T/C (dose: 400.0 mg/kg/injection, schedule: Q01DX001 (ip), vehicle: other): 101 % of control; T/C (dose: 400.0 mg/kg/injection, schedule: Q04DX002 (ip), vehicle: saline with Tween-80): 106 % of control

Which results are given for `COC1C(CO)OC(n2cnc3c(=S)nc(N)[nH]c32)C1O` (stereo not given)?
T/C (dose: 25.0 mg/kg/injection, schedule: Q01DX009 (ip), vehicle: carboxymethylcellulose (CMC)): 105 % of control; T/C (dose: 25.0 mg/kg/injection, schedule: Q01DX009 (ip), vehicle: saline): 100 % of control; T/C (dose: 50.0 mg/kg/injection, schedule: Q01DX009 (ip), vehicle: carboxymethylcellulose (CMC)): 103 % of control; T/C [5]: 116 % of control; T/C [1]: 111 % of control; T/C [6]: 157 % of control; T/C (dose: 200.0 mg/kg/injection, schedule: Q01DX009 (ip), vehicle: carboxymethylcellulose (CMC)): 155 % of control; T/C [7]: 168 % of control; T/C [3]: 154 % of control and 158 % of control

What does the source list for `CC1CCC2C(C1)N(c1ccccc1)OC2(C)C` (stereo not given)?
T/C [8]: 100 % of control; T/C [9]: 94 % of control; T/C [10]: 102 % of control

`C/C=C(\CC)C1(CC)C(=O)NC(=O)NC1=O` was tested. Which T/C (dose: 75.0 mg/kg/injection, schedule: Q01DX001 (ip), vehicle: other) did it give?
Its T/C is 97 % of control.

What about the T/C (dose: 75.0 mg/kg/injection, schedule: Q01DX001 (ip), vehicle: saline) of the same molecule?
Its T/C is 102 % of control.

And the T/C (dose: 150.0 mg/kg/injection, schedule: Q01DX001 (ip), vehicle: other)?
Its T/C is 97 % of control.

And the T/C (dose: 150.0 mg/kg/injection, schedule: Q01DX001 (ip), vehicle: saline)?
The T/C was 103 % of control.

What about the T/C (dose: 300.0 mg/kg/injection, schedule: Q01DX001 (ip), vehicle: other) of the same molecule?
Its T/C is 91 % of control.

What about the T/C (dose: 300.0 mg/kg/injection, schedule: Q01DX001 (ip), vehicle: saline) of the same molecule?
Its T/C is 112 % of control.

What does the source list for `COc1ccc(/C=N/Nc2c([N+](=O)[O-])cc(C)cc2[N+](=O)[O-])cc1`?
T/C [4]: 102 % of control; T/C [11]: 100 % of control; T/C (dose: 400.0 mg/kg/injection, schedule: Q01DX009 (ip), vehicle: Klucel (hydroxypropylcellulose) (HPC)): 100 % of control

With `[N-]=[N+]=C1Cc2ccccc2C1=O` as the molecule, how does the T/C [4] read?
The T/C was 103 % of control.

And the T/C [8]?
Its T/C is 102 % of control.

What about the T/C [11] of the same molecule?
Its T/C is 100 % of control.

And the T/C [9]?
The T/C was 105 % of control.

And the T/C [10]?
Its T/C is 92 % of control.

Which results are given for `COC1=C(Br)C(=O)C(OC)=C(Br)C1=O`?
T/C (dose: 25.0 mg/kg/injection, schedule: Q04DX003 (ip), vehicle: saline with Tween-80): 95 % of control; T/C (dose: 50.0 mg/kg/injection, schedule: Q04DX003 (ip), vehicle: saline with Tween-80): 92 % of control; T/C (dose: 100.0 mg/kg/injection, schedule: Q04DX003 (ip), vehicle: saline with Tween-80): 91 % of control

For `C=CCCCCCCCC/C=N\NC(=O)c1ccc[n+](C)c1`, which T/C [5] is on record?
Its T/C is 106 % of control.

And the T/C [6]?
The T/C was 100 % of control.

What does the source list for `O=C1NC(=O)C(c2ccsc2)(c2cccs2)N1` (stereo not given)?
T/C [1]: 97 % of control; T/C [2]: 89 % of control; T/C [3]: 100 % of control

Which results are given for `NCCCOc1ccc([N+](=O)[O-])cc1`?
T/C (dose: 50.0 mg/kg/injection, schedule: Q01DX001 (ip), vehicle: saline): 100 % of control; T/C [5]: 104 % of control and 109 % of control; T/C (dose: 50.0 mg/kg/injection, schedule: Q04DX003 (ip), vehicle: saline): 95 % of control; T/C (dose: 100.0 mg/kg/injection, schedule: Q01DX001 (ip), vehicle: saline): 101 % of control; T/C [6]: 102 % of control and 107 % of control; T/C [12]: 96 % of control and 89 % of control; T/C (dose: 100.0 mg/kg/injection, schedule: Q04DX003 (ip), vehicle: saline): 114 % of control; T/C (dose: 200.0 mg/kg/injection, schedule: Q01DX001 (ip), vehicle: saline): 100 % of control; T/C [7]: 100 % of control; T/C [13]: 93 % of control and 96 % of control; T/C (dose: 200.0 mg/kg/injection, schedule: Q04DX003 (ip), vehicle: saline): 106 % of control

What does the source list for `CCCC/C=C1\CCCC(C)C1` (stereo not given)?
T/C [12]: 101 % of control; T/C [13]: 101 % of control; T/C (dose: 400.0 mg/kg/injection, schedule: Q04DX002 (ip), vehicle: saline): 97 % of control
